Measurements published in patent US20110263507A1 (priority 2007, published 2011).
Read-outs that look alike come from different tables or passages of the source. Where a SMILES comes first, the peptide text is derived from it. [ ]: non-standard residue; d: D form. Ala(indol-4-yl) = N[C@@H](Cc1cccc2[nH]ccc12)C(=O)O; d1Nal = N[C@H](Cc1cccc2ccccc12)C(=O)O; NMeR = CN[C@@H](CCCNC(=N)N)C(=O)O; Tle = CC(C)(C)[C@H](N)C(=O)O

Legend:
[1] = target: T1, hNTS1 (Homo sapiens, UniProt P30989); assay: Radioligand competition binding with [3H]NT, membranes of CHO-K1 cells expressing hNTS1; conditions: for hNTS1 Selectivity: Table 2, hNTS1 over hNTS2
T1 construct: expressed in transfected cells; host or cells: CHO-K1
T1 sequence (P30989 whole entry): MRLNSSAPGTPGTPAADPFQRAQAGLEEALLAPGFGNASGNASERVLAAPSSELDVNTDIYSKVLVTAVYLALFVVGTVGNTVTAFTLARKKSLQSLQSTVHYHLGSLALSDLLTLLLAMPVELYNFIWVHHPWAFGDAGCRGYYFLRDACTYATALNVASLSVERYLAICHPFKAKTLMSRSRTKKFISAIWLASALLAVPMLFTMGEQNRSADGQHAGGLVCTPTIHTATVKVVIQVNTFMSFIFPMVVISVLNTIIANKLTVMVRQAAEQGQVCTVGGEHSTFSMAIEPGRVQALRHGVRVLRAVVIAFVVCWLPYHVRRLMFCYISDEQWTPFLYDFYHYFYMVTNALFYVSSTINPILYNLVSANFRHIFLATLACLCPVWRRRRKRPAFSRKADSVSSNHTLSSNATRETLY
Method: CHO-K1 cells that had been stably transfected separately with the hNTS1 or hNTS2 genes were cultured in 150 mm (500 cm^2) Petri plates with 35 ml of Dulbecco's modified Eagle's medium containing 100 μM minimal essential medium nonessential amino acids (Life Technologies, Inc.) supplemented with 5% (v/v) FetalClone II bovine serum product (Hyclone Labs, Logan, Utah). […] The cellular pellet (in Tris-HCl buffer) was stored at […] until the radioligand binding was performed.
For use in binding assays, crude membrane preparations were prepared by centrifugation of the cellular pellet at 35,600×g for 10 min. The supernatant was decanted and discarded, and the cellular pellet was resuspended in 1 ml of Tris-HCl buffer followed by homogenization with a Brinkmann Polytron at setting 5.5 for 15 s. Centrifugation was repeated as above, the supernatant was decanted and discarded, and the cellular pellet was resuspended in 1 ml of Tris-HCl buffer followed by homogenization. Centrifugation was repeated a third time, the supernatant was discarded, and the final cellular pellet was suspended in 0.5-2.5 ml of Tris-HCl buffer. Protein concentration of the membrane preparation was estimated by the method of Lowry et al. using bovine serum albumin as a standard.
Incubation was at 20° C. for 40 min. The assay was routinely terminated by addition of ice-cold 0.9% NaCl (5×1.5 ml), followed by rapid filtration through a GF/B filter strip that had been pretreated with 0.2% or 2% polyethyleneimine. Details of binding assays have been described previously. […] Data were analyzed using the LIGAND program.

[2] = system: 6-keto-prostaglandin F1α; assay: Plasma prostaglandin levels after injection; assay type: in vivo; conditions: mice, 30 min after injection; NT69 2 mg/kg, NT79 20 mg/kg intraperitoneally; compared to saline; surrogate marker for hypotension
Method: Blood samples from 3 mice were pooled for each condition.
Therefore, in preliminary studies, levels of 6-keto-prostaglandin F1α immunoreactivity were measured after injection of saline, NT69, or NT79 into mice (FIG. 8).

[3] = Degradation of peptides in plasma in vitro (stability to plasma peptidases); assay type: in vitro ADME; conditions: peptide incubated with human (FIG. 4) or rat plasma; for half-life: read-out: half-lives in plasma
Method: All peptides that were stable (half-lives >100 h), such as NT66, NT67, NT69, NT72, and NT73, have either a blocked amino group (N-Methyl-Arg) or a D-amino in the 8 or 9 position (Table 4).

[4] = Body temperature lowering in mice; assay type: in vivo; conditions: intraperitoneal; for effect on body temperature: 10 times the dosage of that for NT69, FIG. 5
Source text: At time “0” baseline readings were made. […] The thermistor probe was inserted 2 cm into the rectum for the measurement of body temperature.

[5] = target: T2, hNTS2 (Homo sapiens, UniProt O95665); assay: Radioligand competition binding with [3H]NT, membranes of CHO-K1 cells expressing hNTS2
T2 construct: expressed in transfected cells; host or cells: CHO-K1
T2 sequence (O95665 whole entry): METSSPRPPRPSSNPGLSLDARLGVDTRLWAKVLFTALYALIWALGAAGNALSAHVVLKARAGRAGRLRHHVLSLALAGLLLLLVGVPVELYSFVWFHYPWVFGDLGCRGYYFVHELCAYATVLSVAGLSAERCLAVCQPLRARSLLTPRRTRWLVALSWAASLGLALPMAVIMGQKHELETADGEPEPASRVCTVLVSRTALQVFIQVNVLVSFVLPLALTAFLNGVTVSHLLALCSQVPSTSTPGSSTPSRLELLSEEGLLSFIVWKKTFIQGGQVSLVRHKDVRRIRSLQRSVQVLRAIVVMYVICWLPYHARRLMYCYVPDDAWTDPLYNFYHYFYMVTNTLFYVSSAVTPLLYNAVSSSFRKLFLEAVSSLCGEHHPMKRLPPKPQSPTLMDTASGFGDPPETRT
Method: CHO-K1 cells that had been stably transfected separately with the hNTS1 or hNTS2 genes were cultured in 150 mm (500 cm^2) Petri plates with 35 ml of Dulbecco's modified Eagle's medium containing 100 μM minimal essential medium nonessential amino acids (Life Technologies, Inc.) supplemented with 5% (v/v) FetalClone II bovine serum product (Hyclone Labs, Logan, Utah). CHO cells (subculture 7-15) were harvested at confluence by aspiration of the medium, followed by a wash with ice-cold 50 mM Tris-HCl buffer, pH=7.4, which was discarded, resuspension in 5-15 ml of Tris-HCl, scraping the cells with a plastic spatula into a centrifuge tube, and collection of cells by centrifugation at 300×g for 5 min at 4° C., in a GPR centrifuge (Beckman Instruments, Fullerton, Calif.). The cellular pellet (in Tris-HCl buffer) was stored at −180° C. until the radioligand binding was performed.
Incubation was at 20° C. for 40 min. The assay was routinely terminated by addition of ice-cold 0.9% NaCl (5×1.5 ml), followed by rapid filtration through a GF/B filter strip that had been pretreated with 0.2% or 2% polyethyleneimine. […] Data were analyzed using the LIGAND program.
Curves were generated using the LIGAND program. […] Data are the means of duplicate determinations and are representative results from one of at least three independent experiments.

[6] = Tail flick test; assay type: in vivo; conditions: rats, 20 mg/kg intraperitoneally, FIG. 6
Method: The tail flick test also measures changes in nociceptive threshold to thermal stimulus. The rats were administered 20 mg/kg of NT79 intraperitoneally. The rat was placed in a restrainer. Water was heated to 52° C. (52-54° C.). The rat's tail was immersed in the heated water. The latency to flick the tail was recorded. A 10 sec cutoff period was used to prevent tissue damage. Antinociception was expressed as a percentage of the Maximal Possible Effect (MPE) % MPE=100×(test latency−baseline latency)/(cutoff time {10 s}−baseline latency). Analgesic compounds will result in higher % MPE.

[7] = Acetic acid-induced writhing test; assay type: in vivo; conditions: rats, 20 mg/kg intraperitoneally, FIG. 7
Method: The writhing test was used to measure changes in the nociceptive threshold to a chemical stimulus. The rats were administered 20 mg/kg of NT79 intraperitoneally. The rats were also injected with 0.5 ml of a 2% (v/v) aqueous solution of acetic acid and placed individually in clear plastic containers for observation.
Behavioral Measure: The number of writhes was counted during a 60 min observation period. A writhe was defined as stretching of the hind limbs accompanied by a contraction of abdominal muscles. Analgesic compounds will result in lower number of writhes.

[8] = Direct injection into the brains of rats; assay type: in vivo; conditions: direct injection into brain, unpublished observations
Source text: (See Cusack, B. et al. BRAIN RES 856: 48-54 (2000) and Tyler-McMahon, B. M. et al. EUR J PHARMACOL 390: 107-11 (2000)).

[9] = read-out: hNTS1 Geometric Mean ∀ SEM (equilibrium dissociation constant Kd)
[10] = Table 2, read-out: hNTS2 Geometric Mean ∀ SEM (equilibrium dissociation constant Kd)

Compound	hNTS1 Selectivity [1]	Kd [1, 9]	half-life [3]	hNTS2 Selectivity ([5]; Table 2, hNTS2 over hNTS1)	Kd [5, 10]	hNTS2 Selectivity ([5]; Table 4)	further results
CN[C@@H](CCCNC(=N)N)C(=O)N[C@@H](CCCCN)C(=O)N1CCC[C@H]1C(=O)N[C@@H](Cc1cccc2[nH]ccc12)C(=O)N[C@H](C(=O)N[C@@H](CC(C)C)C(=O)O)C(C)(C)C [NT69L, [N-methyl-Arg^8,L-Lys^9,L-neo-Trp^11,tert-Leu^12]NT(8-13)] (H-[NMeR]KP[Ala(indol-4-yl)][Tle]L-OH; C-terminus assumed)	0.7	0.0031 ± 0.0004 µM	> 100 h	1.5	0.0021 ± 0.0002 µM	1.5	plasma levels of prostaglandin (6-keto-prostaglandin F1α immunoreactivity) [2]: markedly elevated; change in body temperature (decrease) ([4]; FIG. 5): about 10 °C
CN[C@@H](CCCNC(=N)N)C(=O)N[C@@H](CCCNC(=N)N)C(=O)N1CCC[C@H]1C(=O)N[C@H](Cc1cccc2ccccc12)C(=O)N[C@H](C(=O)N[C@@H](CC(C)C)C(=O)O)C(C)(C)C [NT79, [N-methyl-Arg^8,D-3,1-Nal^11,tert-Leu^12]NT(8-13)] (H-[NMeR]RP[d1Nal][Tle]L-OH; C-terminus assumed)	–	–	–	82	–	82	Kd [1]: 1.8 µM; Kd ([1]; Kd at hNTS1): ~1.8 µM; plasma levels of prostaglandin (6-keto-prostaglandin F1α immunoreactivity) [2]: no effect; antinociceptive effect in tail flick assay [6]: demonstrated antinociceptive effects; antinociceptive effect in writhing pain model [7]: robust antinociceptive effect; effect on body temperature [4]: minimal effects; Kd [5]: 0.022 µM; selectivity for hNTS2 ([5]; text): 82 fold
CC[C@H](C)[C@H](NC(=O)[C@@H](Cc1cccc2ccccc12)NC(=O)[C@@H]1CCCN1C(=O)[C@H](CCCNC(=N)N)NC(=O)[C@@H](N)CCCNC(=N)N)C(=O)N[C@@H](CC(C)C)C(=O)O [NT50, [D-3,1-Nal^11]NT(8-13)]	–	–	–	–	–	–	behavioral effect [8]: caused behavioral activation; effects on body temperature [8]: little or no effects on body temperature; Kd ([5]; text, read-out: Kd at hNTS2): 0.0173 µM
CC[C@H](C)[C@H](NC(=O)[C@@H](Cc1cccc2ccccc12)NC(=O)[C@@H]1CCCN1C(=O)[C@H](CCCNC(=N)N)NC(=O)[C@H](CCCNC(=N)N)NC)C(=O)N[C@@H](CC(C)C)C(=O)O [NT80, [N-methyl-Arg^8,D-3,1-Nal^11]NT(8-13)]	–	–	–	–	0.03 µM	–	effect on body temperature [4]: minimal effects; Kd ([5]; text, read-out: Kd at hNTS2): ~0.03 µM
CC(C)C[C@H](NC(=O)[C@@H](NC(=O)[C@H](Cc1cccc2[nH]ccc12)NC(=O)[C@@H]1CCCN1C(=O)[C@H](CCCNC(=N)N)NC(=O)[C@H](N)CCCCN)C(C)(C)C)C(=O)O [NT66L, [D-Lys^8,L-neo-Trp^11,tert-Leu^12]NT(8-13)] (H-[dK]RP[Ala(indol-4-yl)][Tle]L-OH; N-terminus and C-terminus assumed)	0.7	0.0102 ± 0.0006 µM	> 100 h	1.4	0.0071 ± 0.0008 µM	2	–
CC(C)C[C@H](NC(=O)[C@@H](NC(=O)[C@H](Cc1cccc2[nH]ccc12)NC(=O)[C@@H]1CCCN1C(=O)[C@H](CCCNC(=N)N)NC(=O)[C@@H](N)CCCNC(=N)N)C(C)(C)C)C(=O)O [NT65, [neo-Trp^11,tert-Leu^12]NT(8-13)] (H-RRP[Ala(indol-4-yl)][Tle]L-OH; N-terminus and C-terminus assumed)	0.5	0.00101 ± 5e-05 µM	–	1.9	0.00052 ± 3e-05 µM	1.7	degradation in plasma [3]: rapidly degraded

Now from value to compound, other results behind:

hNTS1 Selectivity [1]	Kd [1, 9]	half-life [3]	hNTS2 Selectivity ([5]; Table 2, hNTS2 over hNTS1)	Kd [5, 10]	Compound	hNTS2 Selectivity ([5]; Table 4)	further results
5.5	0.03 ± 0.003 µM	> 100 h	0.2	0.162 ± 0.003 µM	CC[C@H](C)[C@H](NC(=O)[C@H](Cc1cccc2[nH]ccc12)NC(=O)[C@@H]1CCCN1C(=O)[C@H](N)CCCCN)C(=O)N[C@@H](CC(C)C)C(=O)O [NT73, [D-Lys^9,L-neo-Trp^11]NT(9-13)] (H-[dK]P[Ala(indol-4-yl)]IL-OH; N-terminus and C-terminus assumed)	–	–
2.1	0.00059 ± 5e-05 µM	> 100 h	0.5	0.00123 ± 3e-05 µM	CC[C@H](C)[C@H](NC(=O)[C@H](Cc1cccc2[nH]ccc12)NC(=O)[C@@H]1CCCN1C(=O)[C@H](CCCNC(=N)N)NC(=O)[C@H](N)CCCCN)C(=O)N[C@@H](CC(C)C)C(=O)O [NT67L, [D-Lys^8,L-neo-Trp^11]NT(8-13)] (H-[dK]RP[Ala(indol-4-yl)]IL-OH; N-terminus and C-terminus assumed)	— (“—“ indicates higher affinity for hNTS1)	–
